Laboratory results: paper PMC5327470, “Discovery and Optimization of Novel 5-Indolyl-7-arylimidazo[1,2-a]pyridine-8-carbonitrile Derivatives as Potent Antitubulin Agents Targeting Colchicine-binding Site” (Scientific Reports, 2017)

What was measured:
[1] = tested on: HT-29 (human colon cancer); assay: MTT antiproliferative assay, HT-29; format: cell-based; conditions: for IC50: Homo sapiens, HT-29, MTT, 72 h, mean ± SD, read-out: IC50 (μM) ±SD HT29
Procedure: (§1) To evaluate the antiproliferative activity, all synthesized derivatives (5a–5v and 7a–7h) were investigated for their activity in vitro against a panel of cancer cell lines including HT-29 (human colon cancer), H460 (human lung cancer), A549 (human lung carcinoma), MKN-45 (human gastric cancer) and SMMC-7721 (human liver cancer) by MTT assay. CA-4 and Crolibulin were served as positive control, and the results expressed as half-maximal inhibitory concentration (IC50). IC50 values are the concentrations that cause 50% inhibition of cancer cell growth (μM). Data represent the mean values ± standard deviation (SD) of independent experiments performed in triplicate.
(§2) Cell lines and culture conditions.The human colon carcinoma cell line HT-29, the human pulmonary carcinoma cell line A549, the human gastric carcinoma cell line MKN-45, the human breast cancer cell line MDA-MB-231 and human heptocarcinoma cellline SMMC-7721were cultured in RPMI-1640 mediumcontaining 10% FBS, 100 U/mL streptomycin and 100 U/mL penicillinat 37 °C in humidified atmosphere with 5% CO2. All of the cells were purchased from the American Type Culture Collection (ATCC, Manassas, VA).
(§3) The antiproliferative activities in vitro of Crolibulin and all the target compounds were determined by an MTT assay. Briefly, cells were seeded into 96-well plates at a density of 1–3 × 10^4/well (depends on the cell growth rate). 24 h later, triplicate wells were treated with media and the agents. After 72 h ofincubation at 37 °C in 5% CO2, the drug containing medium wasremoved and replaced by 100 mL of fresh medium with 5 mg/mLMTT solution. After 4 h of incubation, the medium with MTT was removed, and […] of DMSO was added to each well. The plates were gently agitated until the purple formazan crystals were dissolved, and the OD490 was determinedusing a microplate reader (MK3, Thermo, Germany). The data were calculated and plotted as the percent viability compared to the control. The 50% inhibitory concentration (IC50) was defined as theconcentration that reduced the absorbance of the untreated wells by 50% of the vehicle in the MTT assay.

[2] = tested on: H460 (human lung cancer); assay: MTT antiproliferative assay, H460; format: cell-based; conditions: MTT, 72 h, mean ± SD
Procedure: as §1, §3

[3] = tested on: A549 (human lung carcinoma); assay: MTT antiproliferative assay, A549; format: cell-based; conditions: 72 h, mean ± SD
Procedure: as §1, §2, §3

[4] = tested on: MKN-45 (human gastric cancer); assay: MTT antiproliferative assay, MKN-45; format: cell-based; conditions: 72 h, mean ± SD, read-out: IC50 (μM) ±SD MKN45
Procedure: as §1, §2, §3

[5] = tested on: SMMC-7721 (human liver cancer); assay: MTT antiproliferative assay, SMMC-7721; format: cell-based; conditions: 72 h, mean ± SD
Procedure: Data represent the mean values ± standard deviation (SD) of independent experiments performed in triplicate.
All of the cells were purchased from the American Type Culture Collection (ATCC, Manassas, VA).
as §3, with “After 72 h ofincubation at 37 °C in 5% CO2, the drug containing medium wasremoved and replaced by 100 mL of fresh medium with 5 mg/mLMTT solution.” left out, “control.” for “control. The 50% inhibitory concentration (IC50) was defined as theconcentration that reduced the absorbance of the untreated wells by 50% of the vehicle in the MTT assay.”

Structure (SMILES) | IC50 [1] | IC50 ([2]; Homo sapiens, NCI-H460, 72 h) | IC50 [2] | IC50 [3] | IC50 [4] | IC50 [5] | melting point | fold more potent than 5a on HT-29 cell ([1]; ratio of IC50 values) | IC50 ([2]; Homo sapiens, NCI-H460)
N#Cc1c(-c2ccc(F)cc2Cl)cc(-c2c[nH]c3ccccc23)n2cc(CN3CCOCC3)nc12 [7h, 7-(2-chloro-4-fluorophenyl)-5-(1H-indol-3-yl)-2-(morpholinomethyl)imidazo[1,2-a]pyridine-8-carbonitrile] | 0.92 ± 0.14 µM | 1.27 ± 0.14 µM | – | 16.9 ± 1.98 µM | 36.3 ± 5.15 µM | 28.7 ± 1.79 µM | 201.3 to 203.5 °C | – | –
COc1cc(-c2cc(-c3c[nH]c4ccccc34)n3ccnc3c2C#N)c(Br)cc1O [5n, 7-(2-bromo-4-hydroxy-5-methoxyphenyl)-5-(1H-indol-3-yl)imidazo[1,2-a]pyridine-8-carbonitrile] | 1.16 ± 0.13 µM | 9.61 ± 0.74 µM | – | 80.2 ± 9.68 µM | 14.5 ± 2.43 µM | 97.2 ± 6.54 µM | 327.7 to 330 °C | – | –
COc1cc([C@H]2C(C#N)=C(N)Oc3c2ccc(N)c3N)cc(Br)c1OC [Crolibulin, reference compound] | 0.52 ± 0.02 µM | – | – | – | 0.17 ± 0.03 µM | – | – | – | 0.03 ± 0.007 µM
COc1cc(OC)c(OC)c(-c2cc(-c3c[nH]c4ccccc34)n3ccnc3c2C#N)c1 [5q, 5-(1H-indol-3-yl)-7-(2,3,5-trimethoxyphenyl)imidazo[1,2-a]pyridine-8-carbonitrile] | 0.46 ± 0.03 µM | – | – | 1.75 ± 0.13 µM | 1.74 ± 0.15 µM | 27.4 ± 2.32 µM | 302.7 to 304.8 °C | – | –

Now from value to molecule, other results behind:

IC50 [1] | IC50 ([2]; Homo sapiens, NCI-H460, 72 h) | IC50 [2] | IC50 [3] | IC50 [4] | IC50 [5] | melting point | Structure (SMILES) | fold more potent than 5a on HT-29 cell ([1]; ratio of IC50 values) | IC50 ([2]; Homo sapiens, NCI-H460)
0.12 ± 0.02 µM | 1.16 µM | 0.95 ± 0.03 µM | 8.54 ± 0.93 µM | 2.76 ± 0.47 µM | 53.5 ± 7.76 µM | 307.8 to 309.5 °C | N#Cc1c(-c2ccc(Br)cc2)cc(-c2c[nH]c3ccccc23)n2ccnc12 [5h, 7-(4-bromophenyl)-5-(1H-indol-3-yl)imidazo[1,2-a]pyridine-8-carbonitrile] | about 2.5 fold | –
0.24 ± 0.01 µM | 17.5 ± 1.53 µM | – | 12.2 ± 1.89 µM | 1.24 ± 0.08 µM | 76.2 ± 8.98 µM | 316.5 to 318.7 °C | COc1cccc(-c2cc(-c3c[nH]c4ccccc34)n3ccnc3c2C#N)c1 [5c, 5-(1H-indol-3-yl)-7-(3-methoxyphenyl)imidazo[1,2-a]pyridine-8-carbonitrile] | – | –
0.58 ± 0.06 µM | 80.7 ± 6.98 µM | – | > 100 µM | 56.8 ± 4.29 µM | > 100 µM | 302.2 to 306.8 °C | N#Cc1c(-c2ccccc2Cl)cc(-c2c[nH]c3ccc(Br)cc23)n2ccnc12 [5t, 5-(5-bromo-1H-indol-3-yl)-7-(2-chlorophenyl)imidazo[1,2-a]pyridine-8-carbonitrile] | – | –
2.86 ± 0.38 µM | 17.2 ± 1.34 µM | – | 67.3 ± 4.59 µM | 31.2 ± 5.79 µM | > 100 µM | 301.7 to 304.6 °C | N#Cc1c(-c2ccccc2F)cc(-c2c[nH]c3ccc(Br)cc23)n2ccnc12 [5s, 5-(5-bromo-1H-indol-3-yl)-7-(2-fluorophenyl)imidazo[1,2-a]pyridine-8-carbonitrile] | – | –
0.73 ± 0.09 µM | 1.93 ± 0.33 µM | – | 21.4 ± 2.58 µM | 38.1 ± 4.42 µM | 79.3 ± 5.14 µM | 317.2 to 321.8 °C | N#Cc1c(-c2ccc(Br)cc2)cc(-c2c[nH]c3ccc(Br)cc23)n2ccnc12 [5u, 5-(5-bromo-1H-indol-3-yl)-7-(4-bromophenyl)imidazo[1,2-a]pyridine-8-carbonitrile] | – | –
0.03 ± 0.009 µM | 0.076 ± 0.01 µM | – | – | 1.43 ± 0.12 µM | 18.5 ± 2.76 µM | 341.6 to 343.8 °C | N#Cc1c(-c2ccc(F)c(F)c2)cc(-c2c[nH]c3ccccc23)n2ccnc12 [5j, 7-(3,4-difluorophenyl)-5-(1H-indol-3-yl)imidazo[1,2-a]pyridine-8-carbonitrile] | – | –
